Legend:
[1] = tested on: HaCaT cells; format: cell-based, human; conditions: 100 µM, 24 h, Hoechst 33342
Protocol: (§1) The potential toxicity of 100 μM RUT, OA, LA, RUT-O, and RUT-L at nuclear level was tested by applying the Hoechst 33342 staining assay protocol according to the manufacturer’s (Thermo Fisher Scientific, Inc., Waltham, MA, United States) recommendations. In brief, H9c2(2-1), HepaRG, and HaCaT cells were seeded in 12-well plates (10^5 cells/1.5 ml/well) and treated with the test compounds for 24 h. After the stimulation period, the media was removed, and the staining solution diluted 1:2000 in PBS was added (500 µl/well). The plates were incubated for 10 min at room temperature, protected from light. Finally, the staining solution was washed with PBS and the pictures were taken using Cytation 1 (BioTek Instruments Inc., Winooski, VT, United States) and analyzed by the means of Gen5™ Microplate Data Collection and Analysis Software (BioTek Instruments Inc., Winooski, VT, United States). Staurosporine (STP) 5 µM was selected as positive control for apoptosis.

[2] = tested on: HepaRG cells; format: cell-based, human; conditions: 100 µM, 24 h, Hoechst 33342
Protocol: as §1

[3] = in vitro; format: cell-based, human; conditions: human
Protocol: (§2) To evaluate the in vitro effect of rutin esters (REs) on cells’ viability, the MTT technique was applied following a 24 h treatment of H9c2(2-1), HepaRG, and HaCaT cells with RUT-O and RUT-L (1, 10, 25, 50, and 100 µM). The parent compounds (PCs)—RUT, OA, and LA were also tested. DMSO was used as solvent for all test compounds (RUT, OA, LA, RUT-O, and RUT-L). The impact of DMSO at tested concentrations (1, 10, 25, 50, and 100 µM) was also assessed in vitro. At the end of the treatment, fresh media (100 µl) and the MTT reagent (10 µl) were added in each well, and the plates were incubated for 3 h at 37°C. The final steps were as follows: addition of the solubilization solution (100 µl/well), incubation of the plates at room temperature for 30 min, protected from light, and absorbance measurement at two wavelengths (570 and 630 nm) using Cytation 5 (BioTek Instruments Inc., Winooski, VT, United States). The results were expressed as percentage (%) of viable cells normalized to control cells (unstimulated cells).

[4] = tested on: H9c2(2-1) cells; format: cell-based, rat; conditions: 100 µM, 24 h, Hoechst 33342
Protocol: as §1

[5] = tested on: trophoblast-like Swan71 cells; design: method as in Shrestha et al., 2019; conditions: 24 h of treatment, ref Shrestha et al., 2019; cited from earlier work
[6] = tested on: chorioallantoic membrane; test: HET-CAM in ovo irritant potential; format: in vivo, Gallus domesticus; conditions: 5 min after application
Protocol: To perform a toxicological screening and to verify the irritant potential of the RUT-O and RUT-L were used chicken eggs (Gallus domesticus). Specifically, the eggs were prepared as follows: 1) after being washed and disinfected with 70% ethanol (v/v), the eggs were placed in an incubator in a horizontal posture; 2) on the fourth day of incubation, a small hole was made through which a volume of approximately 7–8 ml of albumen was extracted in order to facilitate the detachment of the chorioallantoic membrane from the inner shell of the egg; 3) on the fifth day of incubation, a window was cut in the upper part of the egg to allow the visualization of the blood vessels, which was then covered with adhesive tape and the eggs were placed in the incubator until the day of the beginning of the experiment. Using the Hen’s Egg Test—Chorioallantoic Membrane (HET-CAM) assay, the potential in ovo toxicity of the samples was evaluated. […] [Kis et al., 2022]). […] In order to observe any vascular effects, a stereomicroscope (Discovery 8 Stereomicroscope Zeiss, Göttingen, and Germany) was used, and images were taken with a Zeiss Axio CAM 105 color camera before and 5 min after the application of the samples. The same experimental protocol was applied for the parent compounds—RUT, OA, and LA.

[7] = tested on: HUVEC endothelial cells; conditions: ref Lu et al., 2010; cited from earlier work
[8] = tested on: H9c2(2-1) cells; test: in vitro; format: cell-based, rat; conditions: H9c2(2-1), lowest concentrations (1 and 10 µM), 24 h
Protocol: as §2

[9] = in vitro; format: cell-based, rat; conditions: rat
Protocol: as §2

[10] = tested on: H9c2(2-1), HaCaT, and HepaRG cells; format: cell-based; conditions: 100 µM, 24 h
Protocol: To verify the impact of PCs (RUT, OA and LA) and REs (RUT-O and RUT-L) on the morphology and confluence of H9c2(2-1), HaCaT, and HepaRG cells, a microscopic examination was performed. The cells were observed under bright field illumination and photographed at the end of the 24 h treatment period using Cytation 1 (BioTek Instruments Inc., Winooski, VT, United States). The photographs were processed using the Gen5™ Microplate Data Collection and Analysis Software (BioTek Instruments Inc., Winooski, VT, United States).

[11] = tested on: HaCaT; design: method as in Carullo et al., 2019; conditions: 1 μM; ref Carullo et al., 2019; cited from earlier work

SMILES | nuclear morphology changes [1] | nuclear morphology changes [2] | viability at 24 h, 100 µM [3] [%] | nuclear morphology changes [4] | decrease in the viability compared to vehicle control [5] [%] | vascular irritation signs (hemorrhage, lysis, coagulation) in words [6] | concentrations suppressing HUVEC endothelial cells growth [7] | effect on cell viability [8] | viability at 24 h, 50 µM [9] [%] | viability at 24 h, 100 µM [9] [%] | round cells floating in the culture medium ([10]; bright field) | impact on cells' adherence or confluency ([10]; compared to control cells) | stimulation of HaCaT wound healing [11]
CCCCC/C=C\C/C=C\CCCCCCCC(=O)O [LA, linoleic acid] | no significant nuclear alterations | no significant nuclear alterations | 86.9 | no significant nuclear alterations | 10 | No signs of vascular irritation | higher than 300 µM | stimulatory effect | 87.2 | 84.2 | several round cells floating in the culture medium | no negative impact | –
CCCCCCCC/C=C\CCCCCCCC(=O)Oc1c(-c2ccc(O)c(O)c2)oc2cc(O)cc(O)c2c1=O [Quercetin-3-oleate] | – | – | – | – | – | – | – | – | – | – | – | – | up to 51%
